Assay results: publication PMC9551036, “A selective and orally bioavailable VHL-recruiting PROTAC achieves SMARCA2 degradation in vivo” (Nature Communications, 2022)
“And” between values parts separate entries of the source, which are not always exact repeats. Equal values may be shown once. Read-outs that look alike come from different tables or passages of the source.

Experiments:
[1] = molecular target: VCB: PROTAC: SMARCA4^BD ternary complex (Homo sapiens, UniProt P40337+P51532); assay: SPR ternary complex measurement, VCB immobilised, 10 µM SMARCA4^BD present; assay type: binding; design: P51532, residues 1448–1569 with additional N-terminal SM residues; His6 (TEV site) (N, cleaved yes); GST (TEV site) (N, cleaved yes); made in house; host or cells: SMARCA4^BD: Escherichia coli BL21(DE3); settings: for Kd: SPR; for alpha: cooperativity, SMARCA4, ratio of KD values measured in the same run
VCB: PROTAC: SMARCA4^BD ternary complex, sequence (P40337 54-213): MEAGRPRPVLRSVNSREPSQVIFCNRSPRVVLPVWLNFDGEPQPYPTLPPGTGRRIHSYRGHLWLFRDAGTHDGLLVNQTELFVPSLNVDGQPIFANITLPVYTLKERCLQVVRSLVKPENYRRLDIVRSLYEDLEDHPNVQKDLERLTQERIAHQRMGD
VCB: PROTAC: SMARCA4^BD ternary complex, sequence (Q15369 17-112 partner limits assumed): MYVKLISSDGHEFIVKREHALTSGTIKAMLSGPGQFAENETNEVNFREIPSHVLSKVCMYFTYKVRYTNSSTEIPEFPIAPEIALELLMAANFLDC
VCB: PROTAC: SMARCA4^BD ternary complex, sequence (Q15370 1-104 partner limits assumed): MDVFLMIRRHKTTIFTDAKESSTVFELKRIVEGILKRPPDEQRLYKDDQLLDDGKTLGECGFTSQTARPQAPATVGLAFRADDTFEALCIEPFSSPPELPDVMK
VCB: PROTAC: SMARCA4^BD ternary complex, sequence (P51532 1448-1569): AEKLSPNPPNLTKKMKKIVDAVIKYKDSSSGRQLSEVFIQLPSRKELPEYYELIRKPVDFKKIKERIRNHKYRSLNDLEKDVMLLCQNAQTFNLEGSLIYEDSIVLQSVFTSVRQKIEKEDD
Procedure: (§1) SPR data were acquired on Biacore 8K or T200 instruments (Cytiva). Target proteins were immobilised at 25 °C on CM5 chips by amine coupling (EDC/NHS, Cytiva) in HBS-P+ running buffer (pH 7.4), containing 2 mM TCEP. […] The reference surface was subsequently deactivated using 1 M ethanolamine. […] Biotinylated VCB was prepared as previously described[27]: in brief, the complex was mixed 1:1 with EZ-Link NHS–PEG4–biotin (Thermo Scientific) and incubated at room temperature for 1 h. Unreacted NHS-biotin was removed using a PD-10 desalting column (Cytiva) into 20 mM HEPES, pH 7.5, 150 mM sodium chloride and 1 mM DTT. The reference surface was generated by deactivating the EDC/NHS-treated surface with 1 M ethanolamine. All interaction experiments were done at 6 °C in running buffer (20 mM TRIS, pH 8.3, 150 mM potassium chloride, 2 mM magnesium chloride, 2 mM TCEP, 0.005% TWEEN 20, 1% dimethyl sulfoxide). For ternary complex measurements, a sensor chip surface with VCB immobilised was used (preparation as described above). Experiments were run in dual-inject mode with 10 µM SMARCA present during the injection and dissociation phase. Sensorgrams from reference surfaces and blank injections were subtracted from the raw data prior to data analysis using Biacore Insight software. Affinity and binding kinetic parameters were determined by global fitting using the 1:1 interaction model with a term for mass-transport included.

[2] = molecular target: VCB: PROTAC: SMARCA2^BD ternary complex (Homo sapiens, UniProt P40337+P51531); assay: SPR ternary complex measurement, VCB immobilised, 10 µM SMARCA2^BD present; assay type: binding; design: P51531-2, residues 1373-1493 with additional N-terminal SM residues; His6 (TEV site) (N, cleaved yes); GST (TEV site) (N, cleaved yes); made in house; host or cells: SMARCA2^BD: Escherichia coli BL21(DE3); settings: for Kd: SPR; for alpha: cooperativity, SMARCA2, ratio of KD values measured in the same run
VCB: PROTAC: SMARCA2^BD ternary complex (Homo sapiens, UniProt P40337+P51531), sequence (P40337 54-213): as the sequence (P40337 54-213) above
VCB: PROTAC: SMARCA2^BD ternary complex (Homo sapiens, UniProt P40337+P51531), sequence (Q15369 17-112 partner limits assumed): as the sequence (Q15369 17-112 partner limits assumed) above
VCB: PROTAC: SMARCA2^BD ternary complex (Homo sapiens, UniProt P40337+P51531), sequence (Q15370 1-104 partner limits assumed): as the sequence (Q15370 1-104 partner limits assumed) above
VCB: PROTAC: SMARCA2^BD ternary complex (Homo sapiens, UniProt P40337+P51531), sequence (P51531 1373-1493 isoform P51531-2): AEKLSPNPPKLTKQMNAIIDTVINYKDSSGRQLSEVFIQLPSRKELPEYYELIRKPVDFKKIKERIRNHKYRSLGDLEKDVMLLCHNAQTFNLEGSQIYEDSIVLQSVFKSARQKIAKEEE
Procedure: as §1

[3] = test system: VCB: PROTAC: SMARCA2^BD ternary complex; assay: TR-FRET ternary complex affinity and cooperativity, SMARCA2; assay type: binding, human; settings: ratio TR-FRET EC50 / TR-FRET EC50 +VCB measured in the same run, SMARCA2BD
PBRM1BD5 [4] = assay: TR-FRET ternary complex affinity and cooperativity, PBRM1; assay type: binding; settings: ratio TR-FRET EC50 / TR-FRET EC50 +VCB measured in the same run, PBRM1BD5
PBRM1BD5 [5] = molecular target: T1, PBRM1BD5 (Homo sapiens, UniProt P40337+Q86U86); assay: as above; assay type: binding; settings: TR-FRET competition for PBRM1BD5, + VCB; mean ± SD; read-out: TR-FRET Ternary PBRM1BD EC50 (PROTAC + VCB)
T1 construct: GST (TEV site) (N); His6 (TEV site) (N, cleaved yes); made in house; host or cells: PBRM1^BD5: Escherichia coli BL21(DE3)
T1 sequence (Q86U86 645-766): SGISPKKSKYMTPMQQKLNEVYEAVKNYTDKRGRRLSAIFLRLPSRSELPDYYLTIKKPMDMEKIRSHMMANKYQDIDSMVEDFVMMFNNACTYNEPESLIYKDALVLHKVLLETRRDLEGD
T1 sequence (P40337 54-213): as the sequence (P40337 54-213) above
T1 sequence (Q15369 17-112 partner): as the sequence (Q15369 17-112 partner limits assumed) above
T1 sequence (Q15370 1-104 partner): as the sequence (Q15370 1-104 partner limits assumed) above

Microsomal stability = assay type: in vitro ADME; settings: for Mic. Stab. Human / Mic. Stab. Human QH: human liver microsomes; for Mic. Stab. Mouse / Mic. Stab. Mouse QH: mouse liver microsomes; for Mic. Stab. Rat / Mic. Stab. Rat QH: rat liver microsomes
Procedure: […] Reactions were terminated by addition of acetonitrile and precipitates separated by centrifugation. Compound concentrations in supernatants were measured by HPLC-MS/MS and clearance was calculated from compound half-lives using the well-stirred liver model.

Caco-2 cell monolayer = assay: Bidirectional permeability measurement in Caco-2 cells; assay type: in vitro ADME
Procedure: Bidirectional permeability of test compounds across a Caco-2 cell monolayer was measured as described[43] with a modification of preincubation time[44]: Briefly, Caco-2 cells were seeded onto Transwell inserts (#3379, Corning, Wiesbaden, Germany) at a density of 160000 cells/cm^2 and cultured in DMEM (high glucose) containing 10% fetal bovine serum for 14–21 days. Cells were incubated with culture media containing 1 µM test compound for 24 h. […] Samples were taken at different time points for up to 2 h. Test compound in the samples was quantified with LC-MS/MS. To elucidate the role of drug transporter P-gp in the transcellular transport, permeability measurement was performed in the absence and presence of the selective P-gp inhibitor zosuquidar (5 µM final concentration). Apparent permeability coefficients (Papp,AB, Papp,BA) were calculated as follows:1 Papp,AB=Q_AB/C0×s×t 2 Papp,BA=Q_BA/C0×s×t where Q is the amount of compound recovered in the receiver compartment after the incubation time t, C0 the initial compound concentration given to the donor compartment, and s the surface area of the Transwell inserts. Efflux ratio is calculated as the quotient of Papp,BA (mean of duplicate) to Papp,AB (mean of duplicate). […] In addition, Transepithelial electrical resistance (TEER) values were measured for each plate before the permeability assay. All three parameters (efflux of the reference substrates, Papp values of the low permeable compound, and TEER values) were used to ensure the quality of the assays.

Solubility testing = assay type: physicochemical; settings: for solubility at 24 h: buffer, kinetic from dmso stock
Procedure: Dilution into a 1:1 mixture of acetonitrile and water was used as reference. After 24 h, the incubations were filtrated, and the filtrate was analyzed by LC-UV.

[6] = ternary complex with SMARCA4BD, mean ± SD
[7] = ternary complex with SMARCA2BD, mean ± SD
[8] = Modified Caco-2, a to b, + PGPi (Zosuquidar)

| SMILES | Kd [1, 6] [nM] | Kd ([1]; ternary, individual replicates) | alpha [1] | Kd [2, 7] [nM] | Kd ([2]; ternary, individual replicates) | alpha [2] | cooperativity α (SMARCA2BD) [3] | cooperativity α (PBRM1BD) (PBRM1BD5 [4]) | EC50 (PBRM1BD5 [5]) [nM] | Mic. Stab. Human (Microsomal stability) [% QH] | Mic. Stab. Human QH (Microsomal stability) | Mic. Stab. Mouse (Microsomal stability) [% QH] | Mic. Stab. Mouse QH (Microsomal stability) | Mic. Stab. Rat (Microsomal stability) [% QH] | Mic. Stab. Rat QH (Microsomal stability) | Caco-2 Pab (Caco-2 cell monolayer; Caco-2) | Modified Caco-2 Efflux ratio (Caco-2 cell monolayer; Modified Caco-2) | Modified Caco-2 Pab + PGPi (Zosuquidar) (Caco-2 cell monolayer; [8]) | Solubility pH 6.8 (Solubility testing; pH 6.8) | Solubility pH 4.5 (Solubility testing; pH 4.5) | further results |
| --- | --- | --- | --- | --- | --- | --- | --- | --- | --- | --- | --- | --- | --- | --- | --- | --- | --- | --- | --- | --- | --- |
| Cc1ncsc1-c1ccc([C@H](COC(C)(C)CN2CCC(c3ccc4c(c3)n(C3CCCC3)c3nc(=O)c5c(Br)cccc5n43)CC2)NC(=O)[C@@H]2C[C@@H](O)CN2C(=O)[C@@H](NC(=O)C2(F)CC2)C(C)(C)C)cc1 [compound 28] | 73 ± 13 | 63.4 nM and 67.4 nM and 86.9 nM | 0.8 | 120 ± 34 | 82.7 nM and 149 nM and 127 nM | 0.5 | 3.8 ± 0.4 | 6.9 ± 1.9 | 4 ± 2 | 57 ± 4 | 51.200% and 55.600% and 59.900% and 60.900% | <24 | < 24.200% and 25.800% | <23 | < 23.100% and 29.700% | 5 ± 2 10-6 cm/s | 37.037 and >37 | 11 ×10⁻⁶ cm/s and 13 ×10⁻⁶ cm/s | <1.000 <1.000 <1.000 <1.000 <1.000 ug/mL |  | Modified Caco-2 Pab (Caco-2 cell monolayer; Modified Caco-2): <7 10-6 cm/s; Modified Caco-2 Pba + PGPi (Zosuquidar) (Caco-2 cell monolayer; Modified Caco-2, b to a, + PGPi (Zosuquidar)): 14 ×10⁻⁶ cm/s |
| Cc1ncsc1-c1ccc([C@H](COCCCN2CCC(c3ccc4c(c3)n(C3CCCC3)c3nc(=O)c5c(Br)cccc5n43)CC2)NC(=O)[C@@H]2C[C@@H](O)CN2C(=O)[C@@H](NC(=O)C2(F)CC2)C(C)(C)C)cc1 [compound 27] | 18 ± 1 | 16.7 nM and 17.5 nM and 19.5 nM | 0.7 | 26 | 26.7 nM and 25.9 nM and 26.4 nM | 0.5 | 3.3 ± 0.8 | 12.2 ± 2.8 | 3 ± 0.5 | 43 ± 5 | 46.200% and 38.900% | <25 | 24.700% and < 24.200% | <23 | <23.100 <23.100% | 5 10-6 cm/s |  |  | <1.000 <1.000 ug/mL | <1.000 <1.000 ug/mL | Caco-2 Efflux ratio (Caco-2 cell monolayer; Caco-2): 4.167 and 4 |
| Cc1ncsc1-c1ccc(CNC(=O)[C@@H]2C[C@@H](O)CN2C(=O)[C@@H](NC(=O)C2(F)CC2)C(C)(C)C)c(OCCN2CCC(c3ccc4c(c3)n(C3CCCC3)c3nc(=O)c5c(Br)cccc5n43)CC2)c1 [compound 20] | 67 ± 3 | 67.7 nM and 69.3 nM and 63.7 nM | 0.1 | 97 ± 10 | 89.5 nM and 108 nM and 91.8 nM | 0.1 | 0.6 ± 0.2 | 1.1 ± 0.1 | 35 ± 4 | 89 ± 7 | 92.780% and 92.740% and 91.810% and 92.050% and 77.420% | 76 ± 2 | 73.270% and 75.530% and 75.780% and 78.330% | 33 ± 3 | 34.870% and 29.970% and 29.780% and 36.100% and < 23.080% | <0.4 10-6 cm/s |  |  | <1.000 <1.000 <1.000 <1.000 <1.000 ug/mL | <1.000 <1.000 <1.000 <1.000 <1.000 ug/mL | Caco-2 Pab (Caco-2 cell monolayer; Caco-2, a to b): <4.04e-07 cm/s |
| Cc1ncsc1-c1ccc([C@H](CCC(C)(C)CCN2CCC(c3ccc4c(c3)n(C3CCCC3)c3nc(=O)c5c(Br)cccc5n43)CC2)NC(=O)[C@@H]2C[C@@H](O)CN2C(=O)[C@@H](NC(=O)C2(F)CC2)C(C)(C)C)cc1 [compound 30] | 45 ± 6 | 41.2 nM and 41.8 nM and 51.4 nM | 0.6 | 86 ± 22 | 66.1 nM and 109 nM and 81.8 nM | 0.3 | 5.9 ± 1.9 | 22.4 ± 3.9 | 6 ± 2 | <24 | <24.400 <24.400% | <24 | <24.200% | <23 | <23.100 <23.100% | <0.3 10-6 cm/s | 7.333 and 12.000 and 10 ± 3 | 7.2 ×10⁻⁶ cm/s and 8.4 ×10⁻⁶ cm/s | <1.000 ug/mL | <1.000 ug/mL | Caco-2 Efflux ratio (Caco-2 cell monolayer; Caco-2): 9.412 No peak area; Modified Caco-2 Pab (Caco-2 cell monolayer; Modified Caco-2, a to b): 4.5e-06 cm/s and 2.5e-06 cm/s |
| Cc1ncsc1-c1ccc(CNC(=O)[C@@H]2C[C@@H](O)CN2C(=O)[C@@H](NC(=O)C2(F)CC2)C(C)(C)C)c(OCCOCCOCCOCCN2CCC(c3ccc4c(c3)n(C3CCCC3)c3nc(=O)c5c(Br)cccc5n43)CC2)c1 [compound 22] | 26 ± 2 | 24.6 nM and 23.9 nM and 28 nM | 1.5 | 77 ± 14 | 66.2 nM and 92.4 nM and 71.3 nM | 0.5 | 2.8 ±0.8 | 2.6 ± 0.1 | 38 ± 5 | 83 ± 13 | 92.060% and 73.150% | 58 | 57.720% | 40 | 40.440% | <0.3 10-6 cm/s |  |  |  |  | Caco-2 Pab (Caco-2 cell monolayer; Caco-2, a to b): <2.78e-07 cm/s |
| Cc1ncsc1-c1ccc(C(CCC(C)CCN2CCC(c3ccc4c(c3)n(C3CCCC3)c3nc(=O)c5c(Br)cccc5n43)CC2)NC(=O)C2CC(O)CN2C(=O)C(NC(=O)C2(F)CC2)C(C)(C)C)cc1 (stereo not shown) [ACBI2] | 24 ± 4 | 21.9 nM and 22.7 nM and 28.4 nM | 1.4 | 44 ± 11 | 35.8 nM and 56 nM and 41.1 nM | 0.8 | 4.6 ± 2.2 | 13.8 ± 1.5 | 5 ± 1 | <24 | <24.400 <24.400 <24.400 <24.400% | <24 | <24.200 <24.200 <24.200 <24.200% | <23 | <23.100 <23.100 <23.100 <23.100% |  |  |  |  |  | solubility at 24 h (Solubility testing; pH 4.5, aqueous buffer, pH 4.5, read-out: Solubility pH 4.5): < 1 µg/mL; solubility at 24 h (Solubility testing; pH 6.8, aqueous buffer, pH 6.8, read-out: Solubility pH 6.8): < 1 µg/mL |
